ChEMBL document CHEMBL1201862, “PubChem BioAssay data set” (2004)
Calls of active or inactive are those of the source.

What was measured:
[1] = target: Nuclear receptor subfamily 5 group A member 2 (Homo sapiens, UniProt O00482); assay type: functional, cell-based;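 further: HEK293T cells transfected with LRH-1 and a StAR promoter luciferase reporter; potency for inhibitors that lower LRH-1 driven reporter light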
[2] = Luminescence Cell-Based Dose Response HTS to Identify Activators of Luciferase Translation or Activity in H4 […] Cells. [Related pubchem assays: 1829 (Project Summary), 1814 (Primary HTS)]; assay type: functional
[3] = Vero E6 cell cytotoxicity, dose response, cytotoxicity control for non-replicating M. tuberculosis project, secondary assay (AID 492998); assay type: functional, VeroE6; conditions: Vero C1008
[4] = Luminescence Cell-Based Dose Confirmation HTS to Identify Activators of 5'UTR Stem-Loop Driven Alpha-Synuclein mRNA Translation in H4 Neuroglioblastoma Cells. [Related pubchem assays: 1829 (Project Summary), 1814 (Primary HTS)]; assay type: functional
[5] = nonselective StAR promoter luciferase inhibitors – cell-based, luminescence, luciferase reporter, counter-screen for LRH-1 inverse agonist project, dose response (AID 651969); assay type: functional
[6] = Luminescence Cell-Based Dose Retest to Confirm Inhibitors of Cancer Stem Cells. [Related pubchem assays (depositor defined):AID2717, AID2721]; assay type: functional, Homo sapiens; conditions: Homo sapiens
Steroidogenic factor 1 = Steroidogenic factor 1 (Homo sapiens, UniProt Q13285); assay: Counterscreen for inverse agonists of the liver receptor homolog-1 (LRH-1; NR5A2): Luminescence-based cell-based high throughput dose response assay to identify inverse agonists of the Steroidogenic Factor 1 Nuclear Receptor (SF1; NR5A1).; assay type: functional
Sequence of Steroidogenic factor 1 (Q13285 whole entry): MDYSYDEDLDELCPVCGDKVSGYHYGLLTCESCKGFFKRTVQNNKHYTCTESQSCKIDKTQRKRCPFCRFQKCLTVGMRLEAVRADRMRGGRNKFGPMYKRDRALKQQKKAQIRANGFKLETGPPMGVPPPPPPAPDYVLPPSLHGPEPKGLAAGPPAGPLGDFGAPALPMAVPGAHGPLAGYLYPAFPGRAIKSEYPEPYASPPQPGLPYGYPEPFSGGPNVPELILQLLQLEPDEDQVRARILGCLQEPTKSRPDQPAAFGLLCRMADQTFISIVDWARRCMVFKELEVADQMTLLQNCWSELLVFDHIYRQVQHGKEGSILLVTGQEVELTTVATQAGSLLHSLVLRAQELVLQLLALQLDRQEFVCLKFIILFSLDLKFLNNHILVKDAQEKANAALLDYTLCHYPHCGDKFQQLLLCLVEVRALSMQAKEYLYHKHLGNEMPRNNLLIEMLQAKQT

[7] = THP-1 cell cytotoxicity, dose response, cytotoxicity control for non-replicating M. tuberculosis project (AID 489025); assay type: functional
cells = assay type: functional
H4 = assay: Luminescence Cell-Based Dose Response HTS to Identify Activators of 5'UTR Stem-Loop Driven Prion Protein mRNA Translation in H4 Neuroglioblastoma Cells. [Related pubchem assays: 1829 (Project Summary), 1814 (Primary HTS)]; assay type: functional; conditions: Homo sapiens
[8] = Luminescence Cell-Based Dose Confirmation HTS to Identify Inhibitors of Platelet Dense Granule Release. [Related pubchem assays: 1663 (Primary HTS), 1678 (Summary of Project)]; assay type: functional
[9] = target: Luciferin 4-monooxygenase (Photinus pyralis, UniProt P08659); assay: inhibition of purified Photinus pyralis luciferase – biochemical, luminescence, dose response (AID 1891)
Sequence of Luciferin 4-monooxygenase (P08659 whole entry, the tested form may be a part): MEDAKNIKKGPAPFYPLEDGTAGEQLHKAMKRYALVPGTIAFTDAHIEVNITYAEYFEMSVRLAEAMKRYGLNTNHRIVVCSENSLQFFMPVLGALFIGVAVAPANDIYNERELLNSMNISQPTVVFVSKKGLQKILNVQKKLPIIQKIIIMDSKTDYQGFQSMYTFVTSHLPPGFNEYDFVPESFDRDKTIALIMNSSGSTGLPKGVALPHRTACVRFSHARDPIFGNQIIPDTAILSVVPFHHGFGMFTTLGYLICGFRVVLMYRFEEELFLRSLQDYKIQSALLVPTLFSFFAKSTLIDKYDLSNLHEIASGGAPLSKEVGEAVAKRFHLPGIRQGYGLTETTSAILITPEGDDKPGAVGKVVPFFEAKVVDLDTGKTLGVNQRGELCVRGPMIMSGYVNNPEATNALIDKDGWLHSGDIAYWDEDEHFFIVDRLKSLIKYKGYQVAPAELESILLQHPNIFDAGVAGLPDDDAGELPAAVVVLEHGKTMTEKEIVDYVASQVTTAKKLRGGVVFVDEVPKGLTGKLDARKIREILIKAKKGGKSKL

[10] = target: Photoreceptor-specific nuclear receptor (Homo sapiens, UniProt Q9Y5X4); assay type: functional, cell-based;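 further: CHO-S cells with Gal4-NCOR and VP16-NR2E3 two-hybrid luciferase reporter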
Sequence of Photoreceptor-specific nuclear receptor (Q9Y5X4 whole entry, the tested form may be a part): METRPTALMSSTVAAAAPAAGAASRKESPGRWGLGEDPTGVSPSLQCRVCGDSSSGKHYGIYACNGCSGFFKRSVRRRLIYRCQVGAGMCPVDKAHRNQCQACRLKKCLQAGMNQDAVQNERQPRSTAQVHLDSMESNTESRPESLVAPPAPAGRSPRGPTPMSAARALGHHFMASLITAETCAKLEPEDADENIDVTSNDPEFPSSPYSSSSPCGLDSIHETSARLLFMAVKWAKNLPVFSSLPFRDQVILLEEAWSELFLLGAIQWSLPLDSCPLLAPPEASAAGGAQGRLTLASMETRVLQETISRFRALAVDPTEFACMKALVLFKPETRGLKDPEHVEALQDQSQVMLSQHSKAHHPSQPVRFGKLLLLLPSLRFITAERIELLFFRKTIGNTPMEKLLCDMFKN

[11] = Fluorescence-based cell-based high throughput dose response assay for inhibitors of the interaction of nucleotide-binding oligomerization domain containing 2 (NOD2) and the receptor-interacting serine-threonine kinase 2 (RIPK2).; assay type: functional; conditions: Homo sapiens
[12] = target: T1, High affinity choline transporter 1 (Homo sapiens, UniProt Q9GZV3); assay: human choline transporter potentiators, potency – cell-based, 10-point CRC, membrane potential dye, dose response (AID 602376); assay type: functional
T1 sequence (Q9GZV3 whole entry): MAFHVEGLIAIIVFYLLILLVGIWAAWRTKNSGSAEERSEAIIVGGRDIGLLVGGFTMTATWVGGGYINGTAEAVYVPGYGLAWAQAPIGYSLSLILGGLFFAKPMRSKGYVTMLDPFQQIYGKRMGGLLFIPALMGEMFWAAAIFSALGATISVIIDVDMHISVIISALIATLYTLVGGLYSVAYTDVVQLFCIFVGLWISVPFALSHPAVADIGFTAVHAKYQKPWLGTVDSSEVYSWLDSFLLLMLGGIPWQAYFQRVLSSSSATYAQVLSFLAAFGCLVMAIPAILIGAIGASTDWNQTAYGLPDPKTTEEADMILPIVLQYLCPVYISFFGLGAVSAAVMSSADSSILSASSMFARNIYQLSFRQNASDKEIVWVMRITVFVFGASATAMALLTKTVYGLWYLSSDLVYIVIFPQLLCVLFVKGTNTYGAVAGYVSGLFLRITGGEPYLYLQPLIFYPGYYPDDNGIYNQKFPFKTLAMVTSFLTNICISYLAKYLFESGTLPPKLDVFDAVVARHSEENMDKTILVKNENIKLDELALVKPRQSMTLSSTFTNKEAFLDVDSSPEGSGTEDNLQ

[13] = DRD fibroblast viability loss – cell-based, non-viral oncogenic, luminescence, dose response (AID 1934); assay type: functional; conditions: Homo sapiens
BJ [14] = assay: growth inhibition of engineered Ras-driven BJ cells – cell-based, alamar blue fluorescence, cherrypicked samples, dose response (AID 2631); assay type: functional; conditions: Homo sapiens;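 further: confirmatory dose-response assay in RAS-dependent BJ fibroblasts engineered with TERT, LT and ST, with cytotoxicity read by fluorescence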
BJ [15] = assay: BJ-TERT fibroblast viability loss – cell-based, RAS-independent, luminescence, dose response (AID 1933); assay type: functional; conditions: Homo sapiens
BJ [16] = assay: cells; assay type: functional, cell-based; conditions: Homo sapiens
BJ [17] = assay: BJ-TERT-LT-ST fibroblast viability loss – cell-based, RAS-independent, luminescence, dose response (AID 1935); assay type: functional; conditions: Homo sapiens;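 further: BJ fibroblasts immortalized with TERT plus LT and ST oncogenes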
[18] = target: T2, Low molecular weight phosphotyrosine protein phosphatase (Homo sapiens, UniProt P24666); assay type: functional; conditions: read-out: IC50_Mean
T2 sequence (P24666 whole entry): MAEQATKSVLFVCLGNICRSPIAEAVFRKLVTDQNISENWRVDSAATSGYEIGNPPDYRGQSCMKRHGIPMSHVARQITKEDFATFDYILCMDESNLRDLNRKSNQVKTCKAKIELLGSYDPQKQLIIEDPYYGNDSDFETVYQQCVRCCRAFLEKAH

[19] = target: T3, Tyrosine-protein phosphatase non-receptor type 22 (Homo sapiens, UniProt Q9Y2R2); assay: PTPN22 enzyme inhibitors – biochemical, fluorescence, LYP catalytic domain, selectivity assay for LMPTP inhibitor project, dose response (AID 652006); assay type: functional; conditions: read-out: IC50_Mean
T3 sequence (Q9Y2R2 whole entry): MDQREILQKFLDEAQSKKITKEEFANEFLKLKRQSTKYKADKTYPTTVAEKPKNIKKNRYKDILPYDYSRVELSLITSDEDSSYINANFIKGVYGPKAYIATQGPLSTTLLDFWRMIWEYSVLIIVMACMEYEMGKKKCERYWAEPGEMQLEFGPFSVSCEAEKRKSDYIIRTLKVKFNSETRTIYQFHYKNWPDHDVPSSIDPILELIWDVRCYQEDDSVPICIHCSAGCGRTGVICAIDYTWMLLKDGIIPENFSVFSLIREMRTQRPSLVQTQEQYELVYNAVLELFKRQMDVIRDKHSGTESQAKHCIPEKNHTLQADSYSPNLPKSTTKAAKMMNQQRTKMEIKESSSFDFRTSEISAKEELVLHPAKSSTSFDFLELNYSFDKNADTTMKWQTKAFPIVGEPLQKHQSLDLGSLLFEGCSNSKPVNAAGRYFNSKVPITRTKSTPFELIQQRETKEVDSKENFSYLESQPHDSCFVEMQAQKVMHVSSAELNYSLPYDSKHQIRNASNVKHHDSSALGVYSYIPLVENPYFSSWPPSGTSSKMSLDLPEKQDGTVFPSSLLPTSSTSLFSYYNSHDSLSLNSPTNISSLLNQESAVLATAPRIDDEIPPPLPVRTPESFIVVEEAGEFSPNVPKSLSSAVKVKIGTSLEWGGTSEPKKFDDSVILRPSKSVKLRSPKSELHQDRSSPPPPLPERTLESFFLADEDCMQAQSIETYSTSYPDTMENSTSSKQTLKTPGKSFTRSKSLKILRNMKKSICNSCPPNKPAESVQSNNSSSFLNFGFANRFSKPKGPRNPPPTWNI

[20] = target: T2, Low molecular weight phosphotyrosine protein phosphatase; assay type: functional; conditions: read-out: IC50_Mean; remark: listed apart in the source
[21] = target: T4, DNA repair protein RAD52 homolog (Homo sapiens, UniProt P43351); assay type: functional, biochemical
T4 sequence (P43351 whole entry): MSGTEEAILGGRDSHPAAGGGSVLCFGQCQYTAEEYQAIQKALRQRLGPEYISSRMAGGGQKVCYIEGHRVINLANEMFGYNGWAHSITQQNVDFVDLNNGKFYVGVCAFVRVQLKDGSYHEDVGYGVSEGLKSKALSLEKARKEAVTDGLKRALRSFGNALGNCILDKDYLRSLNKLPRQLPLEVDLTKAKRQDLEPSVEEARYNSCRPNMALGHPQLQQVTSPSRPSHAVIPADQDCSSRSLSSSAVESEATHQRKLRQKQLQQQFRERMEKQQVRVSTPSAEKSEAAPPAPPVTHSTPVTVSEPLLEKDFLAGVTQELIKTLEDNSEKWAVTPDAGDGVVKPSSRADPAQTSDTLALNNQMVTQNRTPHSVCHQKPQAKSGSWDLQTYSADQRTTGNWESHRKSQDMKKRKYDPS

[22] = cytotoxicity toward MDA-MB-231 breast cancer cells – cell-based, CellTiter-Glo luminescence, cherry-pick, cytotoxicity control for RAD54 inhibitor project, dose response (AID 651692); assay type: functional
[23] = target: T5, DNA repair and recombination protein RAD54-like (Homo sapiens, UniProt Q92698); assay: RAD54 Holliday junction migration blockers – biochemical, fluorescence, cherry-picked samples, dose series, confirmation (AID 651657); assay type: functional
T5 sequence (Q92698 whole entry): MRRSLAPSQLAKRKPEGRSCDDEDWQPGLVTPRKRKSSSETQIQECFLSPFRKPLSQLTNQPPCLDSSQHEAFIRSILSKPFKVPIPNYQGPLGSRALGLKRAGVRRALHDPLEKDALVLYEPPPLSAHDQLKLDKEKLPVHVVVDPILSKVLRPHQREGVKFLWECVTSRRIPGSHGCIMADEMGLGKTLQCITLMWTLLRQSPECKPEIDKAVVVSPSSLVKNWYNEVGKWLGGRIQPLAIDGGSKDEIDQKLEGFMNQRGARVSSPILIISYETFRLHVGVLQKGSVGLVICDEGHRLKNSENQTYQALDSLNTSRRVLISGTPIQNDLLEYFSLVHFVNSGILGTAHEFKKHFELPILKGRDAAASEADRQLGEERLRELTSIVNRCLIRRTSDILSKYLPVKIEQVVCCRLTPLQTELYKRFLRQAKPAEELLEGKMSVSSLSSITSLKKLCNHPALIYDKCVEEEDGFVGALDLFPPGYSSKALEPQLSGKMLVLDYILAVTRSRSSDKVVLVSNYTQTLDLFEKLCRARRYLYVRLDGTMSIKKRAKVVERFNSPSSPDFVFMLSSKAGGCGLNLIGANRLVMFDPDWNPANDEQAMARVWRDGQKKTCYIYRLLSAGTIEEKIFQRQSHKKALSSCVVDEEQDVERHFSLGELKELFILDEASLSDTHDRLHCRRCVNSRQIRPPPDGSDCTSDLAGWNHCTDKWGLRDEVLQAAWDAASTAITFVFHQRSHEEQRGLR

[24] = blockers of CRF-binding protein–CRF-R2 complex – cell-based, uHTS hits, 384-well, dose response (AID 651639); assay type: functional, Homo sapiens; conditions: read-out: IC50_Mean
[25] = target: T6, Corticotropin-releasing factor receptor 2/Corticotropin-releasing factor-binding protein (Homo sapiens, UniProt P24387+Q13324); assay: Dose Response confirmation of uHTS hits for small molecule antagonists of the CRF-binding protein and CRF-R2 receptor complex.; assay type: functional; conditions: read-out: IC50_Mean
T6 sequence (Q13324 whole entry): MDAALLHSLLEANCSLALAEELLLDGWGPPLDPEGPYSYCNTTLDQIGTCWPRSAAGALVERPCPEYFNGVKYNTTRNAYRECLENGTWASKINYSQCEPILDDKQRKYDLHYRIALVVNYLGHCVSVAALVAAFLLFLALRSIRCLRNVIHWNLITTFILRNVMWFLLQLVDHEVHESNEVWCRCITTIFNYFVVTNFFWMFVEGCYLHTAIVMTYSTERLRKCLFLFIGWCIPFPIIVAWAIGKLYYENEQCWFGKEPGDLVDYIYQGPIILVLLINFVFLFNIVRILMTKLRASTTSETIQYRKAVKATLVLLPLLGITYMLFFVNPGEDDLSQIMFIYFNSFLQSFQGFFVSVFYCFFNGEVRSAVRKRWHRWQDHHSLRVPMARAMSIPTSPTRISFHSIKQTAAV
T6 sequence (P24387 whole entry): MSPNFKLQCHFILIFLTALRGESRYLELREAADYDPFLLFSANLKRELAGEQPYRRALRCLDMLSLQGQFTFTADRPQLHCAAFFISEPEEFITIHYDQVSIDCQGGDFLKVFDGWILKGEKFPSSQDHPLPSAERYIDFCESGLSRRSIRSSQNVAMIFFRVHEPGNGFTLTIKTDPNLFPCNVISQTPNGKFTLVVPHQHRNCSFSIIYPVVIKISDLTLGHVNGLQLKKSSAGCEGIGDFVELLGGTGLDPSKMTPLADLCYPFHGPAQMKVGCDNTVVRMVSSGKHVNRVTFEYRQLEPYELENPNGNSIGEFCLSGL

[26] = target: T6, Corticotropin-releasing factor receptor 2/Corticotropin-releasing factor-binding protein; assay: activators of CRF receptor 2 with binding protein – uHTS hits, confirmation (AID 602473); assay type: functional; conditions: read-out: EC50_Mean

Sequence of Nuclear receptor subfamily 5 group A member 2 (O00482 whole entry): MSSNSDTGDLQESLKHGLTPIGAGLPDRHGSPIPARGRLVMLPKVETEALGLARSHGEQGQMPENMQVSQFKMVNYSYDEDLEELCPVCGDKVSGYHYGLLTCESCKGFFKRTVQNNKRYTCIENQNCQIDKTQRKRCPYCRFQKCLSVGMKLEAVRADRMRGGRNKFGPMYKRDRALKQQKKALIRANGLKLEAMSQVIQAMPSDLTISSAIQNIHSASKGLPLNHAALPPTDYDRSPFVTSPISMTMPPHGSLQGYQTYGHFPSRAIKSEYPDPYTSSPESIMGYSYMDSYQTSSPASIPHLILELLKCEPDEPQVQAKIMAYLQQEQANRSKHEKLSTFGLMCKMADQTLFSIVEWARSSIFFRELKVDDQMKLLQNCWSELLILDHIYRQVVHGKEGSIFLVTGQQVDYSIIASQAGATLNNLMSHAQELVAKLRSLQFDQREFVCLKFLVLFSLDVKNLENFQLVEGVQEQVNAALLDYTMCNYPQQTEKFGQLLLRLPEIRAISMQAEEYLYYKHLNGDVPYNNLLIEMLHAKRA

O=C(Nc1ccc(S(=O)(=O)N2CCOCC2)cc1)c1ccc([N+](=O)[O-])o1
IC50 [1]: 10.8 µM (inactive)
EC50 [2]: > 120 µM (not active)
CC50 [3]: 3.98 µM (active)
EC50 [4]: > 120 µM (not active)
IC50 [5]: 35.9 µM (inactive)
AC50 [6]: 3.43 µM (active)
IC50 (Steroidogenic factor 1): 0.443 µM (active)
CC50 [7]: 4.04 µM (active)
IC50 (cells): 6.7 µM (active)
EC50 (H4): > 120 µM (not active)

Cc1cccc(C)c1OCc1cc(C(=O)N2CCC(c3ccncc3)CC2)no1
EC50 [8]: > 112 µM (not active)
EC50 [9]: > 112 µM (not active)
IC50 [10]: 6.23 µM (active)

CCOC(=O)c1ccc(NC(=O)Nc2ccon2)cc1
IC50 [11]: 49.7 µM (inactive)
EC50 [12]: 8.42 µM (active)
EC50 [13]: 0.429 µM (active)
EC50 (BJ [14]): < 0.104 µM (active)
EC50 (BJ [15]): 0.401 µM (active)
EC50 (BJ [16]): 20.1 µM (active)
EC50 (BJ [17]): 0.469 µM (active)

COc1ccccc1CNc1nc(NCc2ccc(NC(C)=O)cc2)c2sccc2n1
IC50 [18]: 5.86 µM (active)
IC50 [19]: 50.4 µM (inactive)
IC50 [20]: 17.7 µM (active)

Cc1cc2oc3ccc(NCCC4CCCN4C)cc3c(=O)c2cc1C (centres undefined)
AC50 [21]: 8.31 µM (active)
AC50 [22]: 23.6 µM (active)
AC50 [23]: 14.7 µM (active)

COC(=O)c1ccc(Sc2ccc(Cl)cc2)c(N)c1
IC50 [24]: > 20 µM (inactive)
IC50 [25]: < 0.368 µM (active)
EC50 [26]: > 53 µM (inactive)
